Results taken from US4371463A, “Enzyme-resistant opiate pentapeptides” (priority 1977, dated 1983).
Square brackets hold non-standard residues; d marks the D form. Ends that are not written are not given here. Peptide text beside a SMILES is read from it.

Legend:
[1] = target: opiate receptors; test: Opiate receptor affinity by inhibition of stereospecific 3H-naloxone binding to rat brain membranes; conditions: for IC50: rat brain membranes, 1 h at 0° C., 100 mM NaCl, 1.3 nM 3H-naloxone, read-out: Opiate Receptor Affinity (concentration causing 50% inhibition of stereospecific 3H-naloxone binding); for opiate receptor affinity, fold greater than the corresponding L-Ala2 isomer: vs L-Ala2-Met-enkephalin-amide
Protocol: Male rats weighing 180-200 g (Sprague-Dawley) were decapitated and each brain with the cerebellum removed was homogenized in 150 mls of ice-cold standard buffer (0.05 M Tris-HCl, pH 7.0 at 25° C.). After refrigerated centrifugation at 12,000×g, the membranes were reconstituted in the standard buffer. After recentrifugation, each brain was suspended in 10 mls of the standard buffer. Aliquots of the freshly prepared membrane preparation (100 μl) were incubated for one hour at 0° C. with various concentrations of the pentapeptide and 100 mM NaCl in a final volume of 0.5 ml with ^3 H-naloxane (New England Nuclear, 34 Ci/mmole) in a concentration of 1.3 nM (20,000 cpm). Incubation was begun with the addition of brain membranes, which were added last. After rapid filtration and washing with two 7 ml portions of ice-cold standard buffer, membrane-laden filters were transferred and counted at 40-45% efficiency at least six hours after shaking with detergent scintillation fluor (Aquasol, New England Nuclear). Control incubations containing levallorphan (100 nM) or dextrallorphan (100 nM) were included. Stereospecific binding (^3 H-naloxone bound in the presence of levallorphan subtracted from binding in the presence of dextrallorphan) represented 85-90% of the total bound naloxane in all experiments. Control values in all experiments ranged between 2000-2800 cpm. From a plot of the percent inhibition of stereospecific ^3 H-naloxane binding as a function of pentapeptide concentration, the opiate receptor affinity of the pentapeptide was determined as that concentration of pentapeptide, in μM, causing 50% inhibition of stereospecific ^3 H-naloxone binding. In this test, the lower the numerical value obtained, the higher is the opiate receptor affinity of the pentapeptide.

[2] = system: rats; test: Analgesia after intracerebral microinjection in rats (tail-flick, flinch-jump, limb pinch); format: in vivo, rat
Protocol: Sprague-Dawley rats were stereotaxically implanted with chronic indwelling cannulae guides constructed from 23 gauge TW stainless steel tubing and fitted with stilettes of corresponding length. […] Testing was initiated approximately one week following surgery. The compounds being assessed for analgesic activity were dissolved in pyrogen-free water and microinjected at various dose levels in a volume 1 μl through 30 gauge injectors which protruded 2 mm past the guide cannulae tips.
Analgesia was assessed by the D'Amour and Smith "tail-flick" procedure, the "flinch-jump" test, and by subjectively evaluating an animal's reaction to pinches of the limbs with forceps. In the "tail-flick" test, a high intensity light was focused on a rat's tail which had been blackened with a felt-tip pen, and the time that it took an animal to remove its tail from this radiant heat was measured to the nearest 0.5 second. In the "flinch-jump" test, AC shock intensity at which an animal jumped and squealed was quantified 15 minutes after an injection (immediately after testing in the tail-flick test). Reactions to limb pinches were also noted at this time. Baseline measures were always taken approximately one hour prior to injection. All animals were tested at 1, 5, 15, 30, 60, 120, and 180 minutes after injection and then at one hour intervals until their response latencies had recovered to baseline levels.

[3] = system: rat; conditions: cited from earlier work; for duration of analgesia: injected directly into active brain sites
[4] = Preincubation with rat brain membranes under physiological conditions at 37° C., then residual opiate receptor inhibitory activity; format: in vitro ADME
[5] = system: rat brain opiate receptors; conditions: cited from earlier work
[6] = 5-10 μg microinjected into rat brain

Molecule: CSCC[C@H](NC(=O)[C@H](Cc1ccccc1)NC(=O)CNC(=O)[C@H](NC(=O)[C@@H](N)Cc1ccc(O)cc1)C(C)C)C(N)=O [D-Val^2 -Met-enkephalin-amide] (H-Y[dV]GFM-NH2)
- IC50 [1]: 4 µM
- dose level needed to produce the same analgesic response as 5 μg of D-Ala2-Met-enkephalin-amide ([2]; microinjected, rat): 20 µg

Molecule: YPGFM-NH2 [L-Pro^2 -Met-enkephalin-amide]
- IC50 [1]: 90 µM

Molecule: CC(C)C[C@H](NC(=O)[C@H](Cc1ccccc1)NC(=O)CNC(=O)CNC(=O)[C@@H](N)Cc1ccc(O)cc1)C(=O)O [Leu-enkephalin, H-L-Tyr-Gly-Gly-L-Phe-L-Leu-OH, reference compound]
- IC50 [1]: 0.7 µM

Molecule: CSCC[C@H](NC(=O)[C@H](Cc1ccccc1)NC(=O)CNC(=O)[C@@H](Cc1ccccc1)NC(=O)[C@@H](N)Cc1ccc(O)cc1)C(N)=O [D-Phe^2 -Met-enkephalin-amide] (H-Y[dF]GFM-NH2)
- IC50 [1]: 2 µM

Molecule: CSCC[C@H](NC(=O)[C@H](Cc1ccccc1)NC(=O)CNC(=O)[C@@H](C)NC(=O)[C@@H](N)Cc1ccc(O)cc1)C(=O)O [D-Ala^2 -Met-enkephalin]
- IC50 [1]: 0.4 µM
- opiate receptor affinity, fold greater than the corresponding L-Ala2 isomer [1]: 10 fold
- duration of action (analgesia) [2, 6]: several hours
- analgesia results compared with D-Ala2-Met-enkephalin-amide ([2]; microinjected, rat): quite similar
- analgesic effects compared with comparable dose levels of morphine ([2]; rat, in vivo): almost as potent and long-lasting

Molecule: CN1CC[C@]23c4c5ccc(O)c4O[C@H]2[C@@H](O)C=C[C@H]3[C@H]1C5 [morphine]
- duration of analgesia [3]: several hours

Molecule: CSCC[C@H](NC(=O)[C@H](Cc1ccccc1)NC(=O)CNC(=O)CNC(=O)[C@@H](N)Cc1ccc(O)cc1)C(=O)O [Met-enkephalin, H-L-Tyr-Gly-Gly-L-Phe-L-Met-OH]
- IC50 [1]: 0.2 µM
- duration of analgesia [3]: several minutes
- analgesic potency, fold weaker than morphine ([3]; rat, in vivo): at least 50 fold
- analgesia elicited ([2]; 120 μg microinjected, rat): relatively low level of analgesia
- time after injection by which analgesia returned to pre-drug level ([2]; 120 μg microinjected, rat): ≤ 5 min
- preincubation time after which complete loss of opiate receptor inhibitory activity resulted [4]: 20 min
- affinity for rat brain opiate receptors relative to morphine [5]: about half

Molecule: CSCC[C@H](NC(=O)[C@H](Cc1ccccc1)NC(=O)CNC(=O)[C@@H](C)NC(=O)[C@@H](N)Cc1ccc(O)cc1)C(N)=O [D-Ala^2 -Met-enkephalin-amide]
- IC50 [1]: 0.4 µM
- opiate receptor affinity, fold greater than the corresponding L-Ala2 isomer [1]: 10 fold
- intensity of analgesia compared with 5 μg of morphine ([2]; 10 μg microinjected, 1 and 2 hours after injection): not as intense
- persistence of analgesia compared with 5 μg of morphine ([2]; 10 μg microinjected, rat): about the same length of time
- analgesic effects compared with comparable dose levels of morphine [2, 6]: almost as potent and long-lasting
- duration of action (analgesia) [2, 6]: several hours
- analgesia elicited ([2]; 5-10 μg microinjected, periaqueductal gray, rat): quite effective in eliciting analgesia
- persistence of analgesia after injection ([2]; 5-10 μg microinjected, rat): three
- effect of naloxone preinjection on analgesia ([2]; naloxone 2 mg/kg i.p. 15 minutes before 10 μg microinjection): almost complete reversal of analgesia

Molecule: CSCC[C@H](NC(=O)[C@H](Cc1ccccc1)NC(=O)CNC(=O)[C@H](C)NC(=O)[C@@H](N)Cc1ccc(O)cc1)C(N)=O [L-Ala^2 -Met-enkephalin-amide, reference compound]
- IC50 [1]: 4 µM
- analgesia elicited ([2]; 10 μg microinjected, rat): failed to elicit any significant analgesia
- preincubation time after which complete loss of opiate receptor inhibitory activity resulted [4]: 60 min

Molecule: CSCC[C@H](NC(=O)[C@H](Cc1ccccc1)NC(=O)CNC(=O)CN(C)C(=O)[C@@H](N)Cc1ccc(O)cc1)C(N)=O [Sar^2 -Met-enkephalin-amide]
- IC50 [1]: 8 µM
